Test results as given in US11945794B2, “Nuclear transport modulators and uses thereof” (Karyopharm Therapeutics Inc., priority 2013, dated 2024).
pIC50: −log10 of the molar value.

What was measured:
Assay in all cases: MTT assay panel
Type in all cases: cell-based
SW-48 = conditions: Homo sapiens, SW48; SW-48 cells, 72 hours
Protocol: (§1) Compound 124 was further tested against a panel of selected solid and hematological cancer cell lines and selected normal cell lines in an MTT assay. Briefly, the various cell lines above were plated at different densities on day 1. […] Cell Titer AQueous One was added to each well, and the plates were read in a plate reader at OD 495.

BL-40 = BL-40 cells, 72 hours
Protocol: as §1

SW-620 = conditions: Homo sapiens; SW-620 cells, 72 hours
Protocol: as §1

SW-480 = conditions: Homo sapiens, SW480; SW-480 cells, 72 hours
Protocol: as §1

DLD-1 = conditions: Homo sapiens; DLD-1 cells, 72 hours
Protocol: as §1

MS751 = MS751 cells, 72 hours
Protocol: as §1

NCI-H226 = conditions: Homo sapiens; NCI-H226 cells, 72 hours
Protocol: as §1

Colo-205 = conditions: Homo sapiens; Colo-205 cells, 72 hours
Protocol: as §1

NCI-H2122 = conditions: Homo sapiens; NCI-H2122 cells, 72 hours
Protocol: as §1

L3.6pl = conditions: Homo sapiens; L3.6pl cells, 72 hours
Protocol: as §1

NCI-H28 = conditions: Homo sapiens; NCI-H28 cells, 72 hours
Protocol: as §1

AU-565 = conditions: Homo sapiens, AU565; AU-565 cells, 72 hours
Protocol: as §1

SNU-398 = conditions: Homo sapiens; SNU-398 cells, 72 hours
Protocol: as §1

HEL.92.1.7 = conditions: Homo sapiens; HEL.92.1.7 cells, 72 hours
Protocol: as §1

MOLT4 = conditions: Homo sapiens, MOLT-4; MOLT4 cells, 72 hours
Protocol: as §1

HTB-38 = HTB-38 cells, 72 hours
Protocol: as §1

HCC-4006 = conditions: Homo sapiens, HCC4006; HCC-4006 cells, 72 hours
Protocol: as §1

MO7e = MO7e cells, 72 hours
Protocol: as §1

PANC-10.05 = conditions: Homo sapiens, Panc1005; PANC-10.05 cells, 72 hours
Protocol: as §1

SHSY5Y = conditions: Homo sapiens, SH-SY5Y; SHSY5Y cells, 72 hours
Protocol: as §1

NCI-H1563 = conditions: Homo sapiens; NCI-H1563 cells, 72 hours
Protocol: as §1

Pfieffer = Pfieffer cells, 72 hours
Protocol: as §1

NCI-H1993 = conditions: Homo sapiens; NCI-H1993 cells, 72 hours
Protocol: as §1

U-937 = conditions: Homo sapiens; U-937 cells, 72 hours
Protocol: as §1

Tera-1 = Tera-1 cells, 72 hours
Protocol: as §1

SW-900 = conditions: Homo sapiens, SW900; SW-900 cells, 72 hours
Protocol: as §1

IMR-90 = conditions: Homo sapiens; IMR-90 cells, 72 hours
Protocol: as §1

3T3 = conditions: Mus musculus, NIH3T3; 3T3 cells, 72 hours
Protocol: as §1

SW-1417 = conditions: Homo sapiens, SW1417; SW-1417 cells, 72 hours
Protocol: as §1

RL = conditions: Homo sapiens; RL cells, 72 hours
Protocol: as §1

U-266 = conditions: Homo sapiens; U-266 cells, 72 hours
Protocol: as §1

PATU-8988S = PATU-8988S cells, 72 hours
Protocol: as §1

NCI-H889 = conditions: Homo sapiens; NCI-H889 cells, 72 hours
Protocol: as §1

NCI-H508 = conditions: Homo sapiens; NCI-H508 cells, 72 hours
Protocol: as §1

LS-180 = conditions: Homo sapiens, LS180; LS-180 cells, 72 hours
Protocol: as §1

TFK-1 = TFK-1 cells, 72 hours
Protocol: as §1

NCI-H520 = conditions: Homo sapiens; NCI-H520 cells, 72 hours
Protocol: as §1

NCI-H1299 = conditions: Homo sapiens; NCI-H1299 cells, 72 hours
Protocol: as §1

OCIAML5 = conditions: Homo sapiens, OCI-AML-5; OCIAML5 cells, 72 hours
Protocol: as §1

Work on `NC(=O)/C(=C/n1cnc(-c2cc(C(F)(F)F)cc(C(F)(F)F)c2)n1)c1cncnc1` [Compound 124, (E)-3-(3-(3,5-bis(trifluoromethyl)phenyl)-1H-1,2,4-triazol-1-yl)-2-(pyrimidin-5-yl)acrylamide] yielded a pIC50 (SW-48) of 6.92, a pIC50 (BL-40) of 6.40 and a pIC50 (SW-620) of 6.38. The pIC50 (SW-480) was 5.00, the pIC50 (DLD-1) was 6.10 and the pIC50 (MS751) was 6.40. The pIC50 (NCI-H226) was 7.52, the pIC50 (Colo-205) was 6.92 and the pIC50 (NCI-H2122) was 6.08. The pIC50 (L3.6pl) was 6.33, the pIC50 (NCI-H28) was 6.47 and the pIC50 (AU-565) was 6.31. It also gave a pIC50 (SNU-398) of 6.01, a pIC50 (HEL.92.1.7) of 6.64 and a pIC50 (MOLT4) of 8.00. The pIC50 (HTB-38) was < 5.00, the pIC50 (HCC-4006) was 7.70 and the pIC50 (MO7e) was 7.70. The pIC50 (PANC-10.05) was 6.00, the pIC50 (SHSY5Y) was 7.30 and the pIC50 (NCI-H1563) was 5.11. For the same molecule, the pIC50 (Pfieffer) was 6.85, the pIC50 (NCI-H1993) was < 5.00 and the pIC50 (U-937) was 6.60. For the same molecule, the pIC50 (Tera-1) was 6.82, the pIC50 (SW-900) was 5.73 and the pIC50 (IMR-90) was < 5.00. The pIC50 (3T3) was 5.96, the pIC50 (SW-1417) was < 5.00 and the pIC50 (RL) was 7.70. It also gave a pIC50 (U-266) of 6.64, a pIC50 (PATU-8988S) of 5.00 and a pIC50 (NCI-H889) of 5.99. The pIC50 (NCI-H508) was 6.07, the pIC50 (LS-180) was < 5.00 and the pIC50 (TFK-1) was < 5.00. For the same molecule, the pIC50 (NCI-H520) was 5.89, the pIC50 (NCI-H1299) was 7.30 and the pIC50 (OCIAML5) was 7.40.
